Some test systems named below: HS 578T breast; OVCAR-4 ovarian; M19-MEL melanoma; DLD-1 colon; SNB-78 CNS; DMS 114 small cell lung; MDA-MB-435.
Holding throughout (experiment): growth of human tumour cells (NCI), 48 h

“And” between values parts separate entries of the source, which are not always exact repeats. Identical values can stand only once.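 Following 48 hours of exposure in 96-well plates, responses at five concentrations were used to interpolate endpoints linearly. GI50 = concentration required for 50% inhibition of growth. At the TGI there is no net growth.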

As to `CN(C)c1ccc(C(=S)c2ccc(N(C)C)cc2)cc1`, the results for the GI50 in the assay on HS 578T breast and with OVCAR-4 ovarian were 3.84 µM and 16.9 µM, respectively. In addition, the TGI in the assay with HS 578T breast and with OVCAR-4 ovarian was over 100 µM throughout.
`Cc1ccc2nc(NC(=O)C(=O)C(C(=O)c3ccc4ccccc4c3)C3OC(=O)c4ccccc43)sc2c1` (stereo unspecified): the TGI was 32.6 µM in the assay with M19-MEL melanoma; 32.7 µM with DLD-1 colon; 27.7 µM in the assay with SNB-78 CNS; over 100 µM in the assay with OVCAR-4 ovarian; 29.3 µM in the assay with DMS 114 small cell lung.
Consider `Oc1ccc2ccccc2c1CCc1c(O)ccc2ccccc12`, for which the TGI with HS 578T breast amounted to 45.1 µM; in the assay on MDA-MB-435, 25.4 µM.
As for `COc1cc2c(Oc3ccc(NC(=O)C4(C(=O)Nc5ccc(F)cc5)CC4)cc3F)ccnc2cc1OCCCN1CCOCC1`, the GI50 with HS 578T breast is 2.06 µM and 0.387 µM; in the assay with OVCAR-4 ovarian, 0.747 µM and 2.56 µM; with MDA-MB-435 it was 0.694 µM. Also, the TGI is 13.2 µM and > 10 µM with OVCAR-4 ovarian; 2.39 µM in the assay with MDA-MB-435.
Turning to `CC(=O)N[C@H](C)[C@@H](O)[C@@H](C)[C@@H]1OC(=O)/C=C/C=C(C)\C=C\[C@]2(C)C[C@@H](NS(C)(=O)=O)C=C[C@@H]2/C=C(C)/C=C/[C@H]1C`, the GI50 in the assay on HS 578T breast was 0.0158 µM and 0.0164 µM; in the assay with OVCAR-4 ovarian, 25.2 µM; in the assay with MDA-MB-435, 0.00268 µM and 0.00435 µM. The TGI in the assay on HS 578T breast, with OVCAR-4 ovarian and with MDA-MB-435 was over 43.5 µM in each case.
Regarding `C[C@@H]1CC[C@H]2[C@@H](C)C(O)O[C@@H]3O[C@]4(C)CC[C@@H]1[C@]32OO4` (stereo partly specified), the figures for the GI50 in the assay with HS 578T breast, in the assay with OVCAR-4 ovarian and with MDA-MB-435 were 1.33 µM, 2.43 µM and 0.361 µM, respectively. In addition, the TGI is 42.2 µM in the assay with HS 578T breast, over 56.7 µM in the assay on OVCAR-4 ovarian and 10.8 µM with MDA-MB-435.
Turning to `Cc1ccc2c(c1)[n+](=O)c(C(=O)c1cccs1)c(C(F)(F)F)n2[O-]`, in the assay with MDA-MB-435, the GI50 was 1.37 µM and 1.22 µM; the TGI is 5.41 µM and 9.08 µM.
As to `O=C(O)C1C2C=CC(O2)C1C(=O)NCc1cccnc1` (stereo unspecified), the TGI in the assay with HS 578T breast, in the assay on OVCAR-4 ovarian and in the assay on MDA-MB-435 was over 100 µM each time.
For the molecule `Cc1cc2c(cc1Cl)SC(N(c1ccccc1Cl)S(=O)(=O)c1ccc(Br)s1)=NS2(=O)=O`, the GI50 in the assay on HS 578T breast was 18 µM; in the assay with OVCAR-4 ovarian it was 18.1 µM; in the assay with MDA-MB-435, 13.2 µM. Also, the TGI in the assay with HS 578T breast came to 41.4 µM; in the assay with OVCAR-4 ovarian it was 76.8 µM; with MDA-MB-435, 31.6 µM.
Turning to `Cc1cc(S(=O)(=O)/N=C(\N)Nc2cccc(O)c2)c(SCc2ccccc2)cc1Cl`, the GI50 in the assay on HS 578T breast is 24.4 µM; with OVCAR-4 ovarian, 12.1 µM; in the assay on MDA-MB-435, 14.2 µM. The TGI in the assay with HS 578T breast is 82.9 µM; in the assay on OVCAR-4 ovarian, 45.1 µM; in the assay with MDA-MB-435, 32.5 µM.
As for `Nc1nc(N)c2c(n1)NC(c1sc(Cl)nc1Cl)CC(c1ccccc1)=N2` (stereo unspecified), in the assay with HS 578T breast, the GI50 is 2.44 µM and the TGI amounted to 11.1 µM. In addition, in the assay on MDA-MB-435, the GI50 is 1.47 µM and the TGI was determined as 10.2 µM.
With `C[C@@H](Nc1nc(N[C@H](C)C(F)(F)F)nc(-c2cccc(Cl)n2)n1)C(F)(F)F`, the GI50 with HS 578T breast is 26 µM; with OVCAR-4 ovarian it was 23.3 µM; with MDA-MB-435, over 100 µM. For the same molecule, the values for the TGI with HS 578T breast, in the assay on OVCAR-4 ovarian and with MDA-MB-435 were over 100 µM, 96.9 µM and over 100 µM, respectively.
`COc1ccccc1-n1cnc(N)c1C(=O)c1cc(OC)c(OC)c(OC)c1`: the GI50 in the assay with HS 578T breast was 2.16 µM; with OVCAR-4 ovarian, 6.5 µM; with MDA-MB-435, 1.07 µM. Besides, the TGI was 7.69 µM in the assay on HS 578T breast, over 100 µM in the assay with OVCAR-4 ovarian and 3.81 µM in the assay with MDA-MB-435.
As for `O=C(NC1CCN(Cc2ccccc2)CC1)c1cc(-c2cccnc2)nc2ccc(Cl)cc12`, the GI50 is 9.9 µM in the assay on HS 578T breast, 9.01 µM in the assay with OVCAR-4 ovarian and 9.96 µM in the assay with MDA-MB-435. Also, the TGI in the assay with HS 578T breast was 39.4 µM; in the assay on OVCAR-4 ovarian, 68.5 µM; in the assay on MDA-MB-435, over 100 µM.
Consider `CC/C=C\C[C@H]1C/C=C2/C(=O)C=C[C@H]2C/C=C\CCCC(=O)O1`, for which the GI50 in the assay with HS 578T breast was 10.3 µM; in the assay on OVCAR-4 ovarian it was 2.81 µM; in the assay on MDA-MB-435, 1.66 µM. Besides, the TGI with HS 578T breast is over 50 µM; in the assay with OVCAR-4 ovarian, 9.73 µM; in the assay with MDA-MB-435, 6.04 µM.
In the case of `Cc1cc(F)c(C(=O)Nc2cccc(-c3nncn3C(C)C)n2)cc1-n1cnc(C2CC2)c1`, the GI50 is 26.6 µM in the assay on HS 578T breast, 13.1 µM in the assay on OVCAR-4 ovarian and 11.4 µM with MDA-MB-435. Moreover, the TGI in the assay on HS 578T breast is over 100 µM; in the assay on OVCAR-4 ovarian, 97 µM; in the assay on MDA-MB-435 it was over 100 µM.
Regarding `CNC(=O)c1cc(Oc2ccc3nc(NC(=O)Nc4ccc(CN5CCOCC5)c(C(F)(F)F)c4)sc3c2)ccn1`, the GI50 in the assay on HS 578T breast was 2.55 µM; with OVCAR-4 ovarian it was 1.72 µM; in the assay with MDA-MB-435, 1.83 µM. Besides, the TGI in the assay with HS 578T breast was 9.6 µM; with OVCAR-4 ovarian, 5.64 µM; in the assay with MDA-MB-435, 4.38 µM.
Take `CCCCCC/C=C/C#CCCCCCCCC(=O)O`: the TGI with HS 578T breast, in the assay with OVCAR-4 ovarian and in the assay with MDA-MB-435 was over 100 µM throughout.
`CC1(C)OB(c2ccc(N(CCOS(C)(=O)=O)CCOS(C)(=O)=O)cc2)OC1(C)C`: the GI50 in the assay on HS 578T breast is 32.3 µM; in the assay on OVCAR-4 ovarian, 32.9 µM; in the assay with MDA-MB-435, 23 µM. In addition, the TGI was over 87 µM with HS 578T breast, over 86.6 µM in the assay on OVCAR-4 ovarian and 53.4 µM in the assay with MDA-MB-435.
As to `C[C@@H](C1CC[C@H]2[C@@H]3[C@@H]4O[C@@H]4[C@@]4(O)CC=CC(=O)[C@]4(C)[C@H]3C[C@H](O)[C@]12C)[C@H]1C[C@]2(C)O[C@]2(C)C(=O)O1` (stereo partly specified), the TGI with HS 578T breast, in the assay on OVCAR-4 ovarian and with MDA-MB-435 was over 100 µM in each case.
In the case of `COc1ccc2[nH]c(Cl)c(/C=C3/C(=O)Nc4ccccc43)c2c1`, the GI50 was 0.837 µM in the assay with HS 578T breast, 1.13 µM with OVCAR-4 ovarian and 0.251 µM in the assay on MDA-MB-435. Also, the TGI with HS 578T breast was 4.31 µM; with OVCAR-4 ovarian it was 14.3 µM; with MDA-MB-435, 0.708 µM.
`O=C1/C(=C/c2cccnc2)SC(=S)N1Cc1ccco1`: the TGI in the assay with HS 578T breast was over 22.1 µM; with OVCAR-4 ovarian it was 77.6 µM; with MDA-MB-435 it was 5.54 µM.

Values taken from PubChem BioAssay (NCI).
